Key:
cGMP = assay: Determination of cGMP in rat isolated prostate (radioimmunoassay); details: for cGMP levels: 1 hour
Procedure: (§1) Isolated prostate strips from Wistar rats were prepared to determine prostate levels of cGMP and cAMP. Briefly, prostate strips were respectively incubated with KMUP-1 (10-100 μM), sildenafil (100 μM), and zaprinast (100 μM) in 10 mL Tyrode solution aerated with 95% O2 and 5% CO2 for 1 hour. To examine the possible mechanisms of action of KMUP-1, the rat prostate was pretreated with ODQ (10 μM, sGC inhibitor) and SQ22536 (9-(tetrahydro-2-furanyl)-9H-purin-6-amine, 10 μM, adenylyl cyclase inhibitor) for 30 minutes before KMUP-1 was added. After the incubation, the prostate tissues were extracted with 1 mL of 0.1 N HCl. The extracts were then lyophilized for a further measurement of cyclic GMP or cyclic AMP of each sample, using commercially available radioimmunoassay kits (Amersham Pharmacia Biotech, Buckinghamshire, England).

PKA = assay: Western blot of PKA expression in rat prostate
Procedure: (§2) Prostate strips were incubated with KMUP-1 (10-100 μM), sildenafil (100 μM) and zaprinast (100 μM) in 10 mL Tyrode solution aerated with 95% O2 and 5% CO2 for 1 hour. To examine the possible mechanisms of KMUP-1 action, the rat prostate were pretreated with ODQ (10 μM), SQ22536 (10 μM) and RP-8pCPT-cGMPs (10 μM) for 30 minutes prior to the addition of KMUP-1 (100 μM).
(§3) In order to examine the expression of Rho kinase in prostate, the prostate strips were pre-incubated with phenylephrine (10 μM) for 30 minutes. After a pre-treatment of phenylephrine, KMUP-1 (10-100 μM) and Y-27632 (10 μM) were further incubated for 30 minutes. After the incubation time, the prostate were extracted with protein extraction reagent (Pierce Biotechnology, Inc., Rockford, Ill., USA.). The PZ-HPV-7 cells were incubated with and without KMUP-1 (0.1-10 μM) at 30 minutes, 8 and 24 hours. They were then washed rapidly with ice-cold PBS, incubated with protein extraction reagent, and scraped from the plates. The prostate tissues and cells were sonicated three times for 10 second each time and centrifuged at 13,000 rpm at 4° C. for 30 minutes. The protein concentrations of supernatants were determined, using bovine serum albumin as the standard. […] The intensity of the bands was measured by densitometry.

PKG = assay: Western blot of PKG expression in rat prostate
Procedure: as §2
In order to examine the expression of Rho kinase in prostate, the prostate strips were pre-incubated with phenylephrine (10 μM) for 30 minutes. After a pre-treatment of phenylephrine, KMUP-1 (10-100 μM) and Y-27632 (10 μM) were further incubated for 30 minutes. After the incubation time, the prostate were extracted with protein extraction reagent (Pierce Biotechnology, Inc., Rockford, Ill., USA.). The PZ-HPV-7 cells were incubated with and without KMUP-1 (0.1-10 μM) at 30 minutes, 8 and 24 hours. They were then washed rapidly with ice-cold PBS, incubated with protein extraction reagent, and scraped from the plates. The prostate tissues and cells were sonicated three times for 10 second each time and centrifuged at 13,000 rpm at 4° C. for 30 minutes. The protein concentrations of supernatants were determined, using bovine serum albumin as the standard. Tissue and cell extract protein were then boiled at a ratio of 4:1 with sample buffer (100 mM Tris, pH 6.8, 20% glycerol, 4% SDS, and 0.2% bromphenol blue). 40-60 μg protein was used in this experiment. Electrophoresis was performed using 10 or 12% SDS-polyacrylamide gel electrophoresis and then transferred to nitrocellulose membranes (Millipore Corporation, Billerica, Mass.). The membrane was blocked with Tris-buffered saline (20 mM Tris and 137 mM NaCl, pH 7.6) containing 0.1% Tween 20 (TTBS) and 5% non-fat milk at room temperature for 1 hour, washed with TTBS, and then incubated overnight at 4° C. in the appropriate primary antibody of PKG (Santa Cruz, 1:200), sGCa1 (Santa Cruz, 1:200), PKA (Abcam, 1:1000), ROCK2 (Upstate, 1:1000), and PDE5A (BD Biosciences, 1:1000), p21 (Upstate, 1:1000). The membranes were washed in TTBS before being incubated with horseradish peroxidase-conjugated antibody against mouse, goat, or rabbit IgG (Santa Cruz, 1:1000) for 1 hour. The membrane was then washed in TTBS and developed with the enhanced chemiluminescence (ECL) for the detection of the specific antigen. The intensity of the bands was measured by densitometry.

cAMP = assay: Determination of cAMP in rat isolated prostate (radioimmunoassay); details: for cAMP levels: 1 hour
Procedure: as §1

[1] = test system: PZ-HPV-7 human prostatic epithelial cells; assay: Trypan blue exclusion assay; format: cell-based; details: 1-100 μM, 24 and 48 hours
Procedure: PZ-HPV-7, a human prostate epithelial cell line derived from normal peripheral zone tissue and transfected with human papillomavirus type 18, was obtained from the American Type Culture Collection (ATCC). Cells were grown in K-SFM medium supplemented with 100 U/mL penicillin, […], streptomycin 5 ng/ml, EGF human recombinant and 50 µg/mL BPE in 75-cm^2 flasks at 37° C. in a humidified atmosphere of […]. The culture medium was renewed every 2 days and cells were sub-cultured every 6 days. For the experiments, cells were seeded in 24-well plates at a density of 1×10^4 cells/well. After 24 hours and 48 hours, when cells were 80% confluent, KMUP-1 (1-100 μM) was added to the 24-well plates. Cell proliferation was measured using MTT assay (3-[4,5-dimethylthiazol-2-yl]-2,5-diphenyl-tetrazolium bromide, Sigma). The trypan blue […] exclusion assay was performed to determine the proportion of living and dead cells in 24 hours and 48 hours after treatment. After 24 hours and 48 hours of treatment with KMUP-1 (1-100 μM), attached cells were collected by trypsinization. Cells were counted in a hemocytometer using equal volume of cell suspension and trypan blue solution (0.2% in PBS).

p21 = assay: Western blot of p21 protein in PZ-HPV-7 cells; format: cell-based, human; details: 1, 10 μM, until 24 hours
Procedure: as §3, with “standard. Tissue and cell extract protein were then boiled at a ratio of 4:1 with sample buffer (100 mM Tris, pH 6.8, 20% glycerol, 4% SDS, and 0.2% bromphenol blue). 40-60 μg protein was used in this experiment. Electrophoresis was performed using 10 or 12% SDS-polyacrylamide gel electrophoresis and then transferred to nitrocellulose membranes (Millipore Corporation, Billerica, Mass.).” for “standard.”

ROCK2 = assay: Western blot of phenylephrine-induced Rho kinase (ROCK2) expression in rat prostate; details: KMUP-1 10, 100 μM; Y-27632 10 μM; phenylephrine 10 μM
Procedure: as §3, with “standard. Tissue and cell extract protein were then boiled at a ratio of 4:1 with sample buffer (100 mM Tris, pH 6.8, 20% glycerol, 4% SDS, and 0.2% bromphenol blue). 40-60 μg protein was used in this experiment. Electrophoresis was performed using 10 or 12% SDS-polyacrylamide gel electrophoresis and then transferred to nitrocellulose membranes (Millipore Corporation, Billerica, Mass.).” for “standard.”

With `Cn1c(=O)c2c(ncn2CCN2CCN(c3ccccc3Cl)CC2)n(C)c1=O` [KMUP-1, 7-[2-[4-(2-Chlorobenzene)piperazinyl]ethyl]-1,3-dimethyl xanthine] the cGMP levels (cGMP; 10 μM) was 3.50±0.58 pmol mg^−1 protein, the cGMP levels (cGMP; 100 μM) was 7.50±0.79 pmol mg^−1 protein and the “accumulation of cGMP” value (cGMP; KMUP-1 100 μM in the presence of ODQ 10 μM) was 2.54±0.73 pmol mg^−1 protein. For the same compound, the “expression of PKA” value (PKA; 100 μM) was “significantly induces”, the “expression of PKA” value (PKA; KMUP-1 100 μM with SQ22536 10 μM) was “reversed” and the “expression of PKG” value (PKG; KMUP-1 100 μM after pretreatment of RP-8-pCPT-cGMPs 10 μM for 30 minutes) was “significantly reduce”. For the same compound, the “expression of PKG” value (PKG; KMUP-1 10, 100 μM, sildenafil, zaprinast 100 μM) was “significantly induce”, the cAMP levels (cAMP; 10 μM) was 1.74±0.51 pmol mg^−1 protein and the cAMP levels (cAMP; 100 μM) was 2.82±0.42 pmol mg^−1 protein. The “accumulation of cAMP” value (cAMP; KMUP-1 100 μM in the presence of SQ22536 10 μM) was 2.16±0.79 pmol mg^−1 protein, the “PZ-HPV-7 cell growth, Trypan blue assay” value [1] was “dose- and time-dependent inhibition” and the “production of p21 protein levels” value (p21) was “potently induces”. The “phenylephrine-induced Rho kinase expression” value (ROCK2) was “protected against phenylephrine-induced Rho kinase expression”.

Source: US20090306093A1, “METHOD FOR TREATING PATIENT HAVING BENIGN PROSTATE HYPERPLASIA” (KAOHSIUNG MEDICAL UNIVERSITY, priority 2008, published 2009)
